Patent publication US6572603B1, “Vitamin d solution holder and containers for transfusions” (Otsuka Pharmaceutical Factory, Inc., priority 1998, dated 2003)

Key:
Type in all cases: physicochemical
[1] = Vitamin content of transfusion products of Examples 1 and 2 after four-month storage
Experimental: In a holder produced from a polyethylene film having a thickness of 30 μm, solution (C) (4 ml) was charged and the inlet was melt-sealed, to thereby obtain a holder for the solution containing vitamin D3. The surface area of a solution-holding portion of the holder was 16 cm^2 and the volume of polyethylene constituting the solution-holding portion was 0.048 cm^3.
In a polyethylene-made two-compartment container (see FIG. 2), the above-described holder for vitamin D3 solution had been previously attached to one of the compartments. Solution (A) (600 ml) and solution (B) (300 ml) were charged into two compartments separately in an atmosphere replaced with nitrogen, and the container was sealed. Subsequently, the container was subjected to autoclaving through a customary method, to thereby obtain a transfusion product. The transfusion product was wrapped in a light-shielding nylon multi-layer bag together with a deoxidizing agent (trade name: Ageless, product of Mitsubishi Gas Chem. Co., Inc.).
In the same manner as in Example 1, solution (A), solution (B), and solution (C), having the compositions shown in Table 2, were prepared, and these solutions were charged into a holder and two compartments of a transfusion fluid container as described in Example 1. Subsequently, the container was subjected to autoclaving, to thereby obtain a transfusion product. […]

[2] = Vitamin content of solution (C) in polyolefin holders after autoclaving and storage at 40° C. for four months, measured through HPLC (Example 3)
Experimental: Solution (C) (4 ml) prepared in Example 1 was charged into each of holders made of the materials shown in Table 3, to thereby obtain a holder which contains a solution of vitamin D3. Each of these holders containing a solution of vitamin D3 was subjected to autoclaving and wrapped in a nylon multi-layered-film bag together with a deoxidizing agent (trade name: Ageless, product of Mitsubishi Gas Chem. Co., Inc.). The thus-wrapped holders were allowed to stand at 40° C. for four months. Thereafter, the content of each vitamin in each holder was measured through HPLC. The content of each vitamin is represented by a percentage (%) of the initially incorporated amount.

[3] = Vitamin contents in transfusion fluid containers of Examples 4 and 5 after autoclaving and 40° C. four-month storage, bioassay (vitamin B12, biotin) or HPLC (other vitamins)
Experimental: In a holder produced from a three-layered film (the thickness of each layer: 10 μm) in which the outer and the inner layers are made of polyethylene and the intermediate layer is made of ethylene.tetracyclododecene copolymer (trade name: Apel, product of Mitsui Chemicals, Inc.), solution (C) (4 ml) was charged and the inlet was melt-sealed. In a two-compartment container, the prepared holder was attached to one of the compartments. […] The above-described transfusion fluid containers in Examples 4 and 5 were allowed to stand at 40° C. for four months after autoclaving. Thereafter, the contents of vitamins in the containers were measured through a bioassay according to Pharmacopoeia of Japan (for vitamin B12 and biotin) or through HPLC (for other vitamins). The content of each vitamin is represented by a percentage (%) of the initially incorporated amount.

Which “Vitamin content after storage (acceptable range ≧80%)” value [1] does the source give for `C=C1CC[C@H](O)C/C1=C/C=C1\CCC[C@]2(C)[C@@H]([C@H](C)CCCC(C)C)CC[C@@H]12` [Vitamin D3, cholecalciferol] here?
Its value is ≥ 80%.

What about the “Vitamin content (%) of initially incorporated amount” value (shortened to “Vitamin content (%)”) ([2]; holder No. 1, polyethylene, 30 μm, resin 7.4 cm^3 per μmol vitamin D, 40° C., 4 months) of the same compound?
Its value is 86.2%.

What about the “Vitamin content (%)” value ([2]; holder No. 1, polyethylene, 30 μm, resin 7.4 cm^3 per μmol vitamin D, after sterilization) of the same compound?
The value was 95.4%.

What about the “Vitamin content (%)” value ([2]; holder No. 2, polyethylene, 100 μm, resin 18.5 cm^3 per μmol vitamin D, 40° C., 4 months) of the same compound?
Its value is 81.3%.

And the “Vitamin content (%)” value ([2]; holder No. 2, polyethylene, 100 μm, resin 18.5 cm^3 per μmol vitamin D, after sterilization)?
Its value is 94.6%.

What about the “Vitamin content (%)” value ([2]; holder No. 3, polypropylene, 30 μm, resin 7.4 cm^3 per μmol vitamin D, 40° C., 4 months) of the same compound?
Its value is 85.8%.

And the “Vitamin content (%)” value ([2]; holder No. 3, polypropylene, 30 μm, resin 7.4 cm^3 per μmol vitamin D, after sterilization)?
Its value is 96.2%.

And the “Vitamin content (%)” value ([2]; holder No. 4, polyethylene, 250 μm, resin 123.2 cm^3 per μmol vitamin D, 40° C., 4 months)?
Its value is 66.3%.

What about the “Vitamin content (%)” value ([2]; holder No. 4, polyethylene, 250 μm, resin 123.2 cm^3 per μmol vitamin D, 40° C., 4 months, listed as vitamin D3) of the same compound?
Its value is “fell outside the acceptable range”.

And the “Vitamin content (%)” value ([2]; holder No. 4, polyethylene, 250 μm, resin 123.2 cm^3 per μmol vitamin D, after sterilization)?
The value was 89.8%.

And the “Vitamin content (%)” value ([2]; holder No. 5, polypropylene, 250 μm, resin 123.2 cm^3 per μmol vitamin D, 40° C., 4 months)?
Its value is 69.1%.

What about the “Vitamin content (%)” value ([2]; holder No. 5, polypropylene, 250 μm, resin 123.2 cm^3 per μmol vitamin D, 40° C., 4 months, listed as vitamin D3) of the same compound?
The value was “fell outside the acceptable range”.

What about the “Vitamin content (%)” value ([2]; holder No. 5, polypropylene, 250 μm, resin 123.2 cm^3 per μmol vitamin D, after sterilization) of the same compound?
The value was 87.5%.

What about the “Vitamin content, percentage (%) of the initially incorporated amount” value (“Vitamin content, percentage (%)” for short) ([3]; Example 4 transfusion fluid container, 40° C., 4 months) of the same compound?
Its value is 88.7%.

What about the “Vitamin content, percentage (%)” value ([3]; Example 4 transfusion fluid container, immediately after sterilization) of the same compound?
Its value is 89.8%.

What about the “Vitamin content, percentage (%)” value ([3]; Example 5 transfusion fluid container, 40° C., 4 months) of the same compound?
Its value is 89.6%.

What about the “Vitamin content, percentage (%)” value ([3]; Example 5 transfusion fluid container, immediately after sterilization) of the same compound?
Its value is 90.1%.
